{"source": "patent US10005824B2", "about": "“Selective PYY compounds and uses thereof” (Novo Nordisk A/S, priority 2015, dated 2018)", "key": {"human NPY Y2 receptor": {"molecular_target": "T1, human NPY Y2 receptor (Homo sapiens, UniProt P49146)", "T1 construct": "host or cells: HEK-293 cells that also express a cAMP-sensitive calcium channel", "T1 sequence (P49146 1-381)": "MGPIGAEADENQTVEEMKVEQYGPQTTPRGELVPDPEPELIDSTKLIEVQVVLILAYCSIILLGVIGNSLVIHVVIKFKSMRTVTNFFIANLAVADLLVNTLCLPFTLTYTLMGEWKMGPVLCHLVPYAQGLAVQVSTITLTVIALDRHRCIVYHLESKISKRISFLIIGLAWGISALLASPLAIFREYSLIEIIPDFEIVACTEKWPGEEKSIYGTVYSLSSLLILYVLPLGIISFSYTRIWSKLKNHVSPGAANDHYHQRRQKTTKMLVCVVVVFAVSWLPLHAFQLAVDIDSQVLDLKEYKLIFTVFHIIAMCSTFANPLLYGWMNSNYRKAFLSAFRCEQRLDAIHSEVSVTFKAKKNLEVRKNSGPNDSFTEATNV", "assay": "Actone functional potency assay (Y2 in vitro potency, whole cell)", "assay_type": "cell-based", "text": "The purpose of this example is to test the activity, or potency, of the PYY compounds in vitro. The Y2 in vitro potency is the measure of the activation of the human Y2 receptor subtype in a whole cell assay.\nActone Functional Potency Assay\nThe Neuropeptide Y (NPY) receptors are Gi-coupled seven trans-membrane receptors that mainly signal through the cAMP dependent pathway by inhibiting adenylate cyclase activity which results in a decrease of cAMP production from ATP. The Actone assay is based on a modified calcium channel that has a selective binding for cAMP, resulting in cellular calcium influx, detected by a calcium responsive dye. In order to measure decreased levels of cAMP, as result of NPY receptor activation, the β1/β2-adrenoreceptor agonist, isoproterenol, is added to activate adenylate cyclase and increases cAMP levels in the cell. Decreased cellular calcium concentrations, reflecting a decrease of cAMP levels due to NPY receptor activation, is detected as a decrease in fluorescence from the calcium sensitive dye."}, "human Y1 receptor": {"molecular_target": "T2, human Y1 receptor (Homo sapiens, UniProt P25929)", "T2 construct": "expressed in transfected cells; host or cells: BHK-21 clone 6-482-8, IPTG-induced (membrane preparation)", "T2 sequence (P25929 1-384)": "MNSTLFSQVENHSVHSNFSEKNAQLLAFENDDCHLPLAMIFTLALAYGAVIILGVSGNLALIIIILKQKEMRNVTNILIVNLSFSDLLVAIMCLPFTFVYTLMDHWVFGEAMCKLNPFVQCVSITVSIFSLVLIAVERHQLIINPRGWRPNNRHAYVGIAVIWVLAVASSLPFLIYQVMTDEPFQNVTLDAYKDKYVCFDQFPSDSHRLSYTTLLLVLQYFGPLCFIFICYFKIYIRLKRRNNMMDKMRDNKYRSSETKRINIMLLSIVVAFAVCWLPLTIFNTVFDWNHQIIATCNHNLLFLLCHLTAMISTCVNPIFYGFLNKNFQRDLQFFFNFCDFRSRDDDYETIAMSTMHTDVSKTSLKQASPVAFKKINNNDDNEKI", "assay": "Scintillation proximity assay (SPA) receptor binding, Y1", "procedure": "(§1) The purpose of this example is to test the in vitro binding of the PYY compounds to the Y1, Y2, Y4 and Y5 receptor subtypes, respectively. The receptor binding affinity is a measure of affinity of a compound for the human Y1, Y2, Y4 and Y5 receptor subtypes, respectively.\n(§2) Scintillation Proximity Assay (SPA)\n(§3) NPY-Receptor Expressing Cell Lines.\n(§4) All cells were cultured at +37° C. in a humidified atmosphere with 5% CO2. […] CHO-K1 cells stably expressing the human Y2 receptor (P49146, NPY2R_HUMAN, Uniprot) were cultured in DMEM F-12 with 10% FBS, 1% P/S, 150 μg/ml Hygromycin B and 10 μg/ml Puromycin antibiotic. CHO-K1 cells stably expressing the human Y4 receptor (P50391, NPY4R_HUMAN, Uniprot) were cultured in DMEM F-12 with 10% FBS, 1% P/S, 10 μg/ml Puromycin. HEK-293 cells stably expressing the human Y5 receptor (Q15761, NPY5R_HUMAN, Uniprot) were cultured in DMEM F-12 medium containing 10% FBS, 1% Penicillin-Streptomycin, 250 μg/ml G418 and 1 μg/ml puromycin.\n(§5) The homogenate was centrifuged at 35000 g using an ultracentrifuge for 10 minutes at +4° C. and the supernatant was discarded and fresh homogenization buffer added. Homogenization of the pellet was repeated a total of three times.\n(§6) Human Y receptor SPA binding assay were performed in white 96-well plates in a total volume of 200 μl per well.\n(§7) Plates were sealed and incubated at +25° C. for 2 hours in a plate shaker set at 400 rpm and thereafter centrifuged at 1500 rpm for 10 minutes prior to reading of luminescence on a microplate scintillation and luminescence counter. […] Displacement of radioligand was measured as reduction in luminescence and IC50 values were calculated by nonlinear regression analysis of sigmoidal dose-response curves."}, "human Y4 receptor": {"molecular_target": "T3, human Y4 receptor (Homo sapiens, UniProt P50391)", "T3 construct": "expressed in transfected cells; host or cells: CHO-K1 (membrane preparation)", "T3 sequence (P50391 whole entry)": "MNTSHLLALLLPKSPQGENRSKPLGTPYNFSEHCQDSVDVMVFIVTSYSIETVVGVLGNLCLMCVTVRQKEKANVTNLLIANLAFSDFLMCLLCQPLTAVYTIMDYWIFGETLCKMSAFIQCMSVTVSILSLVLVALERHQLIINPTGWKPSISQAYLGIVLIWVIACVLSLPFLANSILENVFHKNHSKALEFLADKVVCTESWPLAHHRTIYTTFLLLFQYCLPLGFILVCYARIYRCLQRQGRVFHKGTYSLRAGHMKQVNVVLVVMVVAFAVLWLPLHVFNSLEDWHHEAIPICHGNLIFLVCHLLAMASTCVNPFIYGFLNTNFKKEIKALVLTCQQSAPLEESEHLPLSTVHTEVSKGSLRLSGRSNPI", "assay": "Scintillation proximity assay (SPA) receptor binding, Y4", "conditions": "membranes of CHO-K1 cells, [125I]-Pancreatic Polypeptide", "procedure": "as §1, §2, §3, §4, §5, §6, §7"}}, "note": "Read-outs that look alike come from different tables or passages of the source.", "data": [{"smiles": "CC(C)CC(=O)N[C@@H](CCCNC(=N)N)C(=O)N1CCC[C@H]1C(=O)N[C@@H](CCC(=O)O)C(=O)N[C@@H](C)C(=O)N1CCC[C@H]1C(=O)N1CCC[C@H]1C(=O)N[C@@H](CCCCNC(=O)CC[C@H](NC(=O)COCCOCCNC(=O)CC[C@H](NC(=O)CCCCCCCCCCCCCCCCC(=O)O)C(=O)O)C(=O)O)C(=O)N[C@@H](CC(=O)O)C(=O)N[C@@H](C)C(=O)N[C@@H](CO)C(=O)N1CCC[C@H]1C(=O)N[C@@H](CCC(=O)O)C(=O)N[C@@H](CCC(=O)O)C(=O)N[C@@H](CC(C)C)C(=O)N[C@@H](CCC(N)=O)C(=O)N[C@@H](CCCNC(=N)N)C(=O)N[C@@H](Cc1ccc(O)cc1)C(=O)N[C@@H](Cc1ccc(O)cc1)C(=O)N[C@@H](CCC(=O)O)C(=O)N[C@@H](CO)C(=O)N[C@@H](CC(C)C)C(=O)N[C@@H](CCCNC(=N)N)C(=O)N[C@@H](Cc1c[nH]cn1)C(=O)N[C@@H](Cc1ccc(O)cc1)C(=O)N[C@@H](Cc1ccc(O)cc1)C(=O)N[C@@H](CC(N)=O)C(=O)N[C@@H](Cc1c[nH]c2ccccc12)C(=O)N[C@@H](CC(C)C)C(=O)N[C@H](C(=O)N[C@@H](CCCNC(=N)N)C(=O)N[C@@H](CCC(N)=O)C(=O)N[C@@H](CCCNC(=N)N)C(=O)N[C@@H](Cc1ccc(O)cc1)C(N)=O)[C@@H](C)O", "note": "[Compound 54, N{alpha-4}-(3-Methylbutanoyl)-N{Epsilon-10}-[(4S)-4-carboxy-4-[[2-[2-[2-[[(4S)-4-carboxy-4-(17-carboxyheptadecanoylamino)butanoyl]amino]ethoxy]ethoxy]-acetyl]amino]butanoyl]-[Arg4,Pro9,Lys10,Gln18,Glu22,Tyr28,Trp30,Leu31]-PYY(4-36)]", "values": [{"measurement": "EC50", "setting": "human NPY Y2 receptor", "value": 1.6, "unit": "nM"}]}, {"smiles": "CC(C)CC(=O)N[C@@H](CCCNC(=N)N)C(=O)N1CCC[C@H]1C(=O)N[C@@H](CCC(=O)O)C(=O)N[C@@H](C)C(=O)N1CCC[C@H]1C(=O)NCC(=O)N[C@@H](CCCCNC(=O)COCCOCCNC(=O)COCCOCCNC(=O)CC[C@H](NC(=O)CCCCCCCCCCCCCCCCC(=O)O)C(=O)O)C(=O)N[C@@H](CC(=O)O)C(=O)N[C@@H](C)C(=O)N[C@@H](CO)C(=O)N1CCC[C@H]1C(=O)N[C@@H](CCC(=O)O)C(=O)N[C@@H](CCC(=O)O)C(=O)N[C@@H](CC(C)C)C(=O)N[C@@H](CCC(N)=O)C(=O)N[C@@H](CCCNC(=N)N)C(=O)N[C@@H](Cc1ccc(O)cc1)C(=O)N[C@@H](Cc1ccc(O)cc1)C(=O)N[C@@H](C)C(=O)N[C@@H](CCC(=O)O)C(=O)N[C@@H](CC(C)C)C(=O)N[C@@H](CCCNC(=N)N)C(=O)N[C@@H](Cc1c[nH]cn1)C(=O)N[C@@H](Cc1ccc(O)cc1)C(=O)N[C@@H](Cc1ccc(O)cc1)C(=O)N[C@@H](CC(N)=O)C(=O)N[C@@H](Cc1c[nH]c2ccccc12)C(=O)N[C@@H](CC(C)C)C(=O)N[C@H](C(=O)N[C@@H](CCCNC(=N)N)C(=O)N[C@@H](CCC(N)=O)C(=O)N[C@@H](CCCNC(=N)N)C(=O)N[C@@H](Cc1ccc(O)cc1)C(N)=O)[C@@H](C)O", "note": "[Compound 52, N{alpha-4}-(3-Methylbutanoyl)-N{Epsilon-10}-[2-[2-[2-[[2-[2-[2-[[(4S)-4-carboxy-4-(17-carboxyheptadecanoylamino)butanoyl]amino]ethoxy]ethoxy]acetyl]amino]-ethoxy]ethoxy]acetyl]-[Arg4,Lys10,Gln18,Glu23,Tyr28,Trp30,Leu31]-PYY(4-36)]", "values": [{"measurement": "Ki", "setting": "human Y1 receptor; membranes of BHK-21 cells, [125I]-PYY(1-36), read-out: Y1 Ki", "value": "> 10000", "unit": "nM"}, {"measurement": "Ki", "setting": "human Y4 receptor; read-out: Y4 Ki", "value": 5690, "unit": "nM"}]}, {"smiles": "CC(C)CC(=O)N[C@@H](CCCNC(=N)N)C(=O)N1CCC[C@H]1C(=O)N[C@@H](CCC(=O)O)C(=O)N[C@@H](CCCCNC(=O)CC[C@H](NC(=O)CCCCCCCCCCCCCCCCC(=O)O)C(=O)O)C(=O)N1CCC[C@H]1C(=O)N[C@H](C(=O)N[C@@H](CCC(=O)O)C(=O)N[C@@H](CC(=O)O)C(=O)N[C@@H](C)C(=O)N[C@@H](CO)C(=O)N1CCC[C@H]1C(=O)N[C@@H](CCC(=O)O)C(=O)N[C@@H](CCC(=O)O)C(=O)N[C@@H](CC(C)C)C(=O)N[C@@H](CCC(N)=O)C(=O)N[C@@H](CCCNC(=N)N)C(=O)N[C@@H](Cc1ccc(O)cc1)C(=O)N[C@@H](Cc1ccc(O)cc1)C(=O)N[C@@H](CCC(N)=O)C(=O)N[C@@H](CO)C(=O)N[C@@H](CC(C)C)C(=O)N[C@@H](CCCNC(=N)N)C(=O)N[C@@H](Cc1c[nH]cn1)C(=O)N[C@@H](Cc1ccc(O)cc1)C(=O)N[C@@H](Cc1ccc(O)cc1)C(=O)N[C@@H](CC(N)=O)C(=O)N[C@@H](Cc1c[nH]c2ccccc12)C(=O)N[C@@H](CC(C)C)C(=O)N[C@H](C(=O)N[C@@H](CCCNC(=N)N)C(=O)N[C@@H](CCC(N)=O)C(=O)N[C@@H](CCCNC(=N)N)C(=O)N[C@@H](Cc1ccc(O)cc1)C(N)=O)[C@@H](C)O)[C@@H](C)O", "note": "[Compound 43, N{alpha-4}-(3-Methylbutanoyl)-N{Epsilon-7}-[(4S)-4-carboxy-4-(17-carboxy-heptadecanoylamino)butanoyl]-[Arg4,Lys7,Thr9,Gln18,Gln22,Tyr28,Trp30,Leu31]hPYY(4-36)]", "values": [{"measurement": "EC50", "setting": "human NPY Y2 receptor", "value": 0.77, "unit": "nM"}, {"measurement": "Ki", "setting": "human Y1 receptor", "value": "> 10000", "unit": "nM"}]}, {"smiles": "CC(C)CC(=O)N[C@@H](CCCNC(=N)N)C(=O)N1CCC[C@H]1C(=O)N[C@@H](CCC(=O)O)C(=O)N[C@@H](C)C(=O)N1CCC[C@H]1C(=O)NCC(=O)N[C@@H](CCCCNC(=O)COCCOCCNC(=O)COCCOCCNC(=O)CC[C@H](NC(=O)CCCCCCCCCCCCCCCCC(=O)O)C(=O)O)C(=O)N[C@@H](CC(=O)O)C(=O)N[C@@H](C)C(=O)N[C@@H](CO)C(=O)N1CCC[C@H]1C(=O)N[C@@H](CCC(=O)O)C(=O)N[C@@H](CCC(=O)O)C(=O)N[C@@H](CC(C)C)C(=O)N[C@@H](CCC(N)=O)C(=O)N[C@@H](CCCNC(=N)N)C(=O)N[C@@H](Cc1ccc(O)cc1)C(=O)N[C@@H](Cc1ccc(O)cc1)C(=O)N[C@@H](CCC(=O)O)C(=O)N[C@@H](CO)C(=O)N[C@@H](CC(C)C)C(=O)N[C@@H](CCCNC(=N)N)C(=O)N[C@@H](Cc1c[nH]cn1)C(=O)N[C@@H](Cc1ccc(O)cc1)C(=O)N[C@@H](Cc1ccc(O)cc1)C(=O)N[C@@H](CC(N)=O)C(=O)N[C@@H](Cc1c[nH]c2ccccc12)C(=O)N[C@@H](CC(C)C)C(=O)N[C@H](C(=O)N[C@@H](CCCNC(=N)N)C(=O)N[C@@H](CCC(N)=O)C(=O)N[C@@H](CCCNC(=N)N)C(=O)N[C@@H](Cc1ccc(O)cc1)C(N)=O)[C@@H](C)O", "note": "[Compound 51, N{alpha-4}-(3-Methylbutanoyl)-N{Epsilon-10}-[2-[2-[2-[[2-[2-[2-[[(4S)-4-carboxy-4-(17-carboxyheptadecanoylamino)butanoyl]amino]ethoxy]ethoxy]acetyl]-amino]ethoxy]ethoxy]acetyl]-[Arg4,Lys10,Gln18,Glu22,Tyr28,Trp30,Leu31]-PYY(4-36)]", "values": [{"measurement": "Ki", "setting": "human Y1 receptor", "value": 2410, "unit": "nM"}, {"measurement": "Ki", "setting": "human Y4 receptor; Y4 Ki", "value": "> 10000", "unit": "nM"}]}]}
